These results are taken from ChEMBL document CHEMBL5291721, “A preclinical secondary pharmacology resource illuminates target-adverse drug reaction associations of marketed drugs” (Nat Commun, 2023).

The target in assay [1] is T1, Adenosine receptor A3 (Homo sapiens, UniProt P0DMS8).
T1 sequence (P0DMS8 whole entry): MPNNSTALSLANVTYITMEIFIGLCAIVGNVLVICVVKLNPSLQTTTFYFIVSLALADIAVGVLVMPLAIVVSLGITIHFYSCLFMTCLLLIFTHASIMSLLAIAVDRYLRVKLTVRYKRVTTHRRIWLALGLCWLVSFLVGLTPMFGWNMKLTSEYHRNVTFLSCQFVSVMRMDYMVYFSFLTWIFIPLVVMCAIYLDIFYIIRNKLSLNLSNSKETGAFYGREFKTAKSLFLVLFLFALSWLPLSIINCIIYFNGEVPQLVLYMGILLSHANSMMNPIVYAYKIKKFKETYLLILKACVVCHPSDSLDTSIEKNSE

The target of assay [2] is Vascular endothelial growth factor receptor 2 (Homo sapiens, UniProt P35968). In kind it is functional.
Chain of Vascular endothelial growth factor receptor 2 (P35968 whole entry): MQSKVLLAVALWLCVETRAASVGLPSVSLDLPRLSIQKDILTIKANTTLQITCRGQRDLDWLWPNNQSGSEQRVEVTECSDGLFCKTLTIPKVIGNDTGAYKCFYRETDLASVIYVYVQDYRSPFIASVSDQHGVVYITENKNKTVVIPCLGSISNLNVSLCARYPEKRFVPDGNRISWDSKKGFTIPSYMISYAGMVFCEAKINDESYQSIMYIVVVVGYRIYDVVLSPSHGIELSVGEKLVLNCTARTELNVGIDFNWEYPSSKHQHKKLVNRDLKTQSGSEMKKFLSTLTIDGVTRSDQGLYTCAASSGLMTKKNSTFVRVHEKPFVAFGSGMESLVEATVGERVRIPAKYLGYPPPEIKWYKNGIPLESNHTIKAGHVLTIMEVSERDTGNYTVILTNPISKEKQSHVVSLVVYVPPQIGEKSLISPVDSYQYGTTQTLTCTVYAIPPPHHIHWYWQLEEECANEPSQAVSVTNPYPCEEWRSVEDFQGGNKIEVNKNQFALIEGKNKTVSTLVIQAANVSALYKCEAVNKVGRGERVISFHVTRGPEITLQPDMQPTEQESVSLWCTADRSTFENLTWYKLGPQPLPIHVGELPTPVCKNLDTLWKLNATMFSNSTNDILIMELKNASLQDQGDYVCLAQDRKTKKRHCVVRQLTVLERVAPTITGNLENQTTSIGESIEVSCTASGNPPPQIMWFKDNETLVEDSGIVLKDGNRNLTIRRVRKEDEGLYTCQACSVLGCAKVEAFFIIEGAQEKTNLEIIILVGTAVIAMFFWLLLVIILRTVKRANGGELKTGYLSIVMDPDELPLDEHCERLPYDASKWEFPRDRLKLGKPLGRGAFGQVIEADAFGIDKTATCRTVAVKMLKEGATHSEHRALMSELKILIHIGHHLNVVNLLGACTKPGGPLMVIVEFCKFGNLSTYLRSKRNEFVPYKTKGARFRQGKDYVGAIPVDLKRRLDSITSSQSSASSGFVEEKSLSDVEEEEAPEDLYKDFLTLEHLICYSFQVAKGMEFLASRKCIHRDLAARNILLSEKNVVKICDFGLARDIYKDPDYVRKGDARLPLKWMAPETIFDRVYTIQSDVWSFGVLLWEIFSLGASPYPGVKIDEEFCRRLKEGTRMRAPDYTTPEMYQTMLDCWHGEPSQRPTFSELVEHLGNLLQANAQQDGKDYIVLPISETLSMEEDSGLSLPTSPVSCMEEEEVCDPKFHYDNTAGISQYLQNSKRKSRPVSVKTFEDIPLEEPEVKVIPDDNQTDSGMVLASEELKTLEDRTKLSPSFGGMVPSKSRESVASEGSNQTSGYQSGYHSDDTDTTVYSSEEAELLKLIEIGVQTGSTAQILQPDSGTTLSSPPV
Assay [3] addresses T2, 5-hydroxytryptamine receptor 1A (Homo sapiens, UniProt P08908).
T2 sequence (P08908 whole entry): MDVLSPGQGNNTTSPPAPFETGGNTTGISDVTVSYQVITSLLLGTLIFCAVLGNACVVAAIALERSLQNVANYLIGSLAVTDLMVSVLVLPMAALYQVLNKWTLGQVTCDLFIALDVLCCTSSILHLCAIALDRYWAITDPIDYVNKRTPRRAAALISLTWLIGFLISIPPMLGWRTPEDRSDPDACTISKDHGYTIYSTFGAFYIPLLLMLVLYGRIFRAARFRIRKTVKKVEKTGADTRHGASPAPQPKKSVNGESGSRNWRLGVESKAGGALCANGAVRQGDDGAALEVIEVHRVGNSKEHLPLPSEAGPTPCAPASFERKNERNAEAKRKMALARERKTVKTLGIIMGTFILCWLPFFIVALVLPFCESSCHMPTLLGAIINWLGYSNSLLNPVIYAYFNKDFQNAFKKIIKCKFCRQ

The target of assay [4] is 5-hydroxytryptamine receptor 2B (Homo sapiens, UniProt P41595). It is filed as functional, cell-based.
Chain of 5-hydroxytryptamine receptor 2B (P41595 whole entry): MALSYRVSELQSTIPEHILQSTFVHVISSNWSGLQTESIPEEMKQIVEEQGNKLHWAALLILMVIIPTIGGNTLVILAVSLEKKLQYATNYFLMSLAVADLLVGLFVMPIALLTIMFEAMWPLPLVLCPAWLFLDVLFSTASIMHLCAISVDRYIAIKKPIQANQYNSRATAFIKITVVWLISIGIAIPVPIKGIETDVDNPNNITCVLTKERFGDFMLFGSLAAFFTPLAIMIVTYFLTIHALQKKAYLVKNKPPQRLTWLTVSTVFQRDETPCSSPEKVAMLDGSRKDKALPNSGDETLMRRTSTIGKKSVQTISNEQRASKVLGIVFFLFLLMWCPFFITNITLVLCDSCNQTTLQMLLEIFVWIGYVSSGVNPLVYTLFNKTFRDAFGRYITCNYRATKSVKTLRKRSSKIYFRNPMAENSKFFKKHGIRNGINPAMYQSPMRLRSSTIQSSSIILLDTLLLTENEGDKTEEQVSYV
Assay [5] has as its target T3, Gamma-aminobutyric acid receptor subunit alpha-1 (Rattus norvegicus, UniProt P62813).
The target in assay [6] is D(3) dopamine receptor (Homo sapiens, UniProt P35462).
Chain of D(3) dopamine receptor (P35462 whole entry): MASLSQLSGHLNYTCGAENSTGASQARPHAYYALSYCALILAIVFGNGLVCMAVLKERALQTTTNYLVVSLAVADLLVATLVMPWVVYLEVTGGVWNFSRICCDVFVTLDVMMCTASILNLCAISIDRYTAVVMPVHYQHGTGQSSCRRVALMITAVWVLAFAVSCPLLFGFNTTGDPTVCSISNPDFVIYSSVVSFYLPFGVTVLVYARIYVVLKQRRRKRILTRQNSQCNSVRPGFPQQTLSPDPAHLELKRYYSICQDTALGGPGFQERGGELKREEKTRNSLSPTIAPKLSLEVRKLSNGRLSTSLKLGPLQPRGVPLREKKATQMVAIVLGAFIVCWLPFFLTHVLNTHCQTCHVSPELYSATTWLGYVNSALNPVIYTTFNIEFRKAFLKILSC
Assay [7] concerns the target T4, Amine oxidase [flavin-containing] A (Homo sapiens, UniProt P21397).
T4 sequence (P21397 whole entry): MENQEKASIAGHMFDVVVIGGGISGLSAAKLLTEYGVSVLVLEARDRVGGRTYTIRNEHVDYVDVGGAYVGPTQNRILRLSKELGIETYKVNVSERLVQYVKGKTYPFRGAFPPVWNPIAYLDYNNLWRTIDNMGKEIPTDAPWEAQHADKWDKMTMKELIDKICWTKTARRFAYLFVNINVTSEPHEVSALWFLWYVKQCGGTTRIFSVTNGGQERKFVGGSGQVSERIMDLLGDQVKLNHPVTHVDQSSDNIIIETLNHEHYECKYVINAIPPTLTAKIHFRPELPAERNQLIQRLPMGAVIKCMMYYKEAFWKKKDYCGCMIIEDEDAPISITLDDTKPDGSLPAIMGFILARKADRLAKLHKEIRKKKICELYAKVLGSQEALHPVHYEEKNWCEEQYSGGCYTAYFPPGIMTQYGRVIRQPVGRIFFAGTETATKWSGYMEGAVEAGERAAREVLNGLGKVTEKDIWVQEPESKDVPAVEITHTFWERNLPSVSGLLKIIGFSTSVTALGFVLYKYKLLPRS
In kind it is functional.

For assay [8], the target named is T2, 5-hydroxytryptamine receptor 1A. It is filed as functional, cell-based.
In assay [9] the target is D(1A) dopamine receptor (Homo sapiens, UniProt P21728). It is filed as functional, cell-based.
Chain of D(1A) dopamine receptor (P21728 whole entry): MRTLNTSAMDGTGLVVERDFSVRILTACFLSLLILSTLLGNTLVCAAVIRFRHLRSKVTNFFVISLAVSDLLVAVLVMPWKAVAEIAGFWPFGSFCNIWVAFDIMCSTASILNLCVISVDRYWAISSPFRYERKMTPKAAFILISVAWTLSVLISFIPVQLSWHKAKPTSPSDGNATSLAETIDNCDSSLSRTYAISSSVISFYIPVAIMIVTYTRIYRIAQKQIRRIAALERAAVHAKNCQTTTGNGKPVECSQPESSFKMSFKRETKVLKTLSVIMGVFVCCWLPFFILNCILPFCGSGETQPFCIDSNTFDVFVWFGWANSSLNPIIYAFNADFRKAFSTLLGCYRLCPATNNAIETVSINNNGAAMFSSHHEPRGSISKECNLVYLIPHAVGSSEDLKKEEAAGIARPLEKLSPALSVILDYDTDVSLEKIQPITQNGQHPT
Assay [10] has as its target Motilin receptor (Homo sapiens, UniProt O43193).
The target of assay [11] is T1, Adenosine receptor A3. The source holds these as a separate data set.
In assay [12] the target is Sodium-dependent dopamine transporter (Homo sapiens, UniProt Q01959).
Chain of Sodium-dependent dopamine transporter (Q01959 whole entry): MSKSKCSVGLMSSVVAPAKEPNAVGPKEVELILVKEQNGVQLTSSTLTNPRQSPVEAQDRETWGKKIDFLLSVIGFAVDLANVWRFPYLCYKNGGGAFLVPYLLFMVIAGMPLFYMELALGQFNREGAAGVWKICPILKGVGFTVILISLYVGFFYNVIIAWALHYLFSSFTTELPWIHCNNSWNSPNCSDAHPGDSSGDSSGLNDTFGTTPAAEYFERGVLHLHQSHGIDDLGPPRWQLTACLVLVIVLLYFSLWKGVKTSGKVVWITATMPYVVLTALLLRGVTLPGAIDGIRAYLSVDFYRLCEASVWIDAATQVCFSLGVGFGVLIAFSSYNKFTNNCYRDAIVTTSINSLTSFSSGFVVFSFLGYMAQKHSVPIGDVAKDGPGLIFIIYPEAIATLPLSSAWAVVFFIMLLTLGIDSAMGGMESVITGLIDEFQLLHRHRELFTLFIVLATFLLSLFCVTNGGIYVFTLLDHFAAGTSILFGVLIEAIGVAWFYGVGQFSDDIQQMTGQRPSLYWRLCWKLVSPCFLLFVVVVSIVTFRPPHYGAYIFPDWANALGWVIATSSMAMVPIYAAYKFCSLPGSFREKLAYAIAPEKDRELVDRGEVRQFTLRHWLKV
In assay [13] the target is T5, Alpha-2A adrenergic receptor (Homo sapiens, UniProt P08913).
T5 sequence (P08913 whole entry): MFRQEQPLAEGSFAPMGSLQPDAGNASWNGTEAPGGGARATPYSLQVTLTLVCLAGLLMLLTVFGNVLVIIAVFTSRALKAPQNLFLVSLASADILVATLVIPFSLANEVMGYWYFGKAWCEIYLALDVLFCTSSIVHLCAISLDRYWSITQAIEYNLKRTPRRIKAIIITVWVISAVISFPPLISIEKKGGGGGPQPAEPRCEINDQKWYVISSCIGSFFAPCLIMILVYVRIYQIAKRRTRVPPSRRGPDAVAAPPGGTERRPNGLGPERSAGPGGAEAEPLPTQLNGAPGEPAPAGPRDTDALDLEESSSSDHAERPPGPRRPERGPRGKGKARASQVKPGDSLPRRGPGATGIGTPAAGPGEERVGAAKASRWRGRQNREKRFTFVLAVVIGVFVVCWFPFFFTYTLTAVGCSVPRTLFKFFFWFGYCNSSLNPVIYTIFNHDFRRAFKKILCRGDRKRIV
In kind it is functional, cell-based.

The target of assay [14] is Histamine H2 receptor (Homo sapiens, UniProt P25021). It is filed as functional, cell-based.
Chain of Histamine H2 receptor (P25021 whole entry): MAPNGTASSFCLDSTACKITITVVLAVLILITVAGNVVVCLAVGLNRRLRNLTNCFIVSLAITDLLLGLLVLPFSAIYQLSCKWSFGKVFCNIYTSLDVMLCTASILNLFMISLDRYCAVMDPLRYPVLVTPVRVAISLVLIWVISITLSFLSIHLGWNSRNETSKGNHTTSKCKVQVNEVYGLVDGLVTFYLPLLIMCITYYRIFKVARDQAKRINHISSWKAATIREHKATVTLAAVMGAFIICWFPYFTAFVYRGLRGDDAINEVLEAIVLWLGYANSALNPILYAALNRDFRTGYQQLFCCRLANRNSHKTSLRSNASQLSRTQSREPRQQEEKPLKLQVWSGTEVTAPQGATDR
Assay [15] deals with T3, Gamma-aminobutyric acid receptor subunit alpha-1. The source holds these as a separate data set.
The target is the same in assay [16]. In kind it is functional.
In assay [17] the target is Delta-type opioid receptor (Homo sapiens, UniProt P41143).
Chain of Delta-type opioid receptor (P41143 whole entry): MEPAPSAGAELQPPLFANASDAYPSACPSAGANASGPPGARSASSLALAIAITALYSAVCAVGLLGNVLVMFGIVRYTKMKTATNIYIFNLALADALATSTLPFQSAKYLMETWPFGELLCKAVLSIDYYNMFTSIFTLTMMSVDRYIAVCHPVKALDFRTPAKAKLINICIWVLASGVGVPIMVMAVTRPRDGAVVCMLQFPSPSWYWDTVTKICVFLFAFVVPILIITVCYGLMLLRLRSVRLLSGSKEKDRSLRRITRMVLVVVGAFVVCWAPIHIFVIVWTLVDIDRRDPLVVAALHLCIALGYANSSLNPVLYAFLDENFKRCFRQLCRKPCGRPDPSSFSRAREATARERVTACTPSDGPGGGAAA
Also: assay procedure not described here.

T3 sequence (P62813 whole entry): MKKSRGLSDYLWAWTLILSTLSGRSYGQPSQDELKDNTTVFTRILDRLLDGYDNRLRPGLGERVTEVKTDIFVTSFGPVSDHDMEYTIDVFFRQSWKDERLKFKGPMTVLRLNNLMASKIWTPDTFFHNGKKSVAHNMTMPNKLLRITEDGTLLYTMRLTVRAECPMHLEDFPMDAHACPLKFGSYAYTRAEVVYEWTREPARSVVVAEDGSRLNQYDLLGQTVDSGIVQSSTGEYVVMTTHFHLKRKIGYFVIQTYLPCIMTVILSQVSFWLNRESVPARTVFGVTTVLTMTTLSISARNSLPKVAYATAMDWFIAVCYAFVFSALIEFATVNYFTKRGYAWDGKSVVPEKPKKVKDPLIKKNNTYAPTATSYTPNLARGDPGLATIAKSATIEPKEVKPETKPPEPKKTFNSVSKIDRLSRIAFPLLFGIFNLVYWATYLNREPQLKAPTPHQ
Chain of Motilin receptor (O43193 whole entry): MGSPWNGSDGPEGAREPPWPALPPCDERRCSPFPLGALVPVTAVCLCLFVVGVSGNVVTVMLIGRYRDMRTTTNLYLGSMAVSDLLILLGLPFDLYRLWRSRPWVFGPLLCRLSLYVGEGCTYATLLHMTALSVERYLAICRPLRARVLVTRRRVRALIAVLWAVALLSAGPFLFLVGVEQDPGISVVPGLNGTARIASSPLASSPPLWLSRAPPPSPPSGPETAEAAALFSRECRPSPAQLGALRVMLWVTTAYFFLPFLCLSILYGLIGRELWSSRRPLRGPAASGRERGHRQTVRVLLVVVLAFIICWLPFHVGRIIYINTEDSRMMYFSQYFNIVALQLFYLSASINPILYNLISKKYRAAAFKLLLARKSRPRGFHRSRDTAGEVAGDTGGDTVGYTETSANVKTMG

The AC50 is the concentration at which the activity in the assay is half-maximal. The low end stands for activity at low concentration, the high end for activity only at high concentration. With `CC(C1=C(CCN(C)C)Cc2ccccc21)c1ccccn1` (configuration not stated), the AC50 in assay [1] was more than 30 µM; in [2] it was more than 30 µM; in [3], 8.78 µM; in assay [4] it was more than 30 µM; in assay [5], more than 30 µM; in assay [6] it was 6.44 µM.
Regarding `CC(=O)OC(C)OC(=O)C(C)c1ccc(-c2ccccc2)c(F)c1` (configuration not stated), the AC50 in assay [1], in [2], in assay [3], in assay [4], in [5] and in assay [6] was more than 30 µM in each case.
In the case of `C[C@H](N)C(=O)O` [ALANINE], the AC50 in assay [1], in [2], in assay [3], in [4], in assay [5] and in assay [6] was more than 30 µM in each case.
Regarding `O=C1c2c(O)cccc2Cc2cccc(O)c21` [ANTHRALIN], the concentration at half-maximal activity (AC50) in [1] was more than 3 µM; in [2], 6.14 µM; in assay [3], more than 30 µM; in assay [4] it was more than 30 µM; in assay [5] it was more than 3 µM; in assay [6], more than 30 µM.
For `CNC(=O)C[C@@H](N)C(=O)N[C@@H](C(=O)N[C@@H]1C(=O)N2[C@@H]1SC(C)(C)[C@@H]2C(=O)O)c1ccc(O)cc1` [ASPOXICILLIN], the AC50 in assay [1], in assay [3], in [4], in assay [5] and in [6] was more than 30 µM throughout.
Regarding `COC(=O)C1=C(C)NC(C)=C(C(=O)O[C@H]2CCN(Cc3ccccc3)C2)[C@H]1c1cccc([N+](=O)[O-])c1` [BARNIDIPINE], the AC50 was 4.65 µM in assay [1]; more than 30 µM in assay [2]; 6.56 µM in [3]; more than 30 µM in assay [4]; more than 30 µM in assay [5]; 4.3 µM in [6].
In the case of `CCCCOc1ccc(CC(=O)NO)cc1` [BUFEXAMAC], the AC50 in [1], in [2], in assay [3], in [4], in assay [5] and in assay [6] was more than 30 µM throughout.
Turning to `Cc1nnc(SCC2=C(C(=O)O)N3C(=O)[C@@H](NC(=O)Cn4cc(Cl)c(=O)c(Cl)c4)[C@H]3SC2)s1` [CEFAZEDONE], the concentration at half-maximal activity (AC50) in [1] is more than 30 µM; in assay [2], 10.1 µM; in assay [3] it was more than 30 µM; in assay [4], more than 30 µM; in assay [5] it was more than 30 µM; in assay [6], more than 30 µM.
For `Nc1ncnc(Nc2ccc(Cl)cc2)n1` [CHLORAZANIL], the AC50 was 7.95 µM in assay [1]; 15 µM in assay [2]; more than 30 µM in [3]; more than 30 µM in assay [4]; more than 30 µM in assay [5]; more than 30 µM in assay [6].
For `CC[C@H]1OC(=O)[C@H](C)[C@@H](O[C@H]2C[C@@](C)(OC)[C@@H](O)[C@H](C)O2)[C@H](C)[C@@H](O[C@@H]2O[C@H](C)C[C@H](N(C)C)[C@H]2O)[C@](C)(OC)C[C@@H](C)C(=O)[C@H](C)[C@@H](O)[C@]1(C)O` [CLARITHROMYCIN], the AC50 in assay [7], in [8], in assay [9], in assay [10], in assay [11] and in assay [1] was more than 30 µM each time. The AC50 in [12], in assay [3], in [4], in assay [13], in assay [5] and in [6] was more than 30 µM in each case. In assay [14], this molecule yielded an AC50 of more than 30 µM.
Regarding `C[C@@H]1C[C@H]2[C@@H]3C[C@H](F)C4=CC(=O)C=C[C@]4(C)[C@@]3(Cl)[C@@H](O)C[C@]2(C)[C@H]1C(=O)COC(=O)C(C)(C)C` [CLOCORTOLONE PIVALATE], the half-maximal activity concentration (AC50) is 5.52 µM in assay [1]; more than 30 µM in assay [3]; more than 30 µM in [4]; more than 30 µM in [5]; more than 30 µM in assay [6].
For `O=P(O)(O)C(Cl)(Cl)P(=O)(O)O` [CLODRONIC ACID], the AC50 in assay [1], in assay [3], in [4], in assay [5] and in assay [6] was more than 30 µM each time.
Take `Nc1nc(N)nc(Nc2ccc([As]3SCC(CO)S3)cc2)n1` (configuration not stated) [MELARSOPROL]: the AC50 in assay [1] is 1.92 µM; in [3], more than 30 µM; in assay [4], more than 30 µM; in [5], 21 µM; in [6] it was more than 30 µM.
Consider `CC1(C)S[C@@H]2[C@H](NC(=O)[C@H](NC(=O)N3CCN(S(C)(=O)=O)C3=O)c3ccccc3)C(=O)N2[C@H]1C(=O)O` [MEZLOCILLIN], for which the concentration at half-maximal activity (AC50) in assay [1], in assay [3], in [4], in assay [5] and in assay [6] was more than 30 µM each time.
Take `c1ccc2c(CC3=NCCN3)cccc2c1` [NAPHAZOLINE]: the AC50 in assay [1] is more than 30 µM; in [2] it was more than 30 µM; in assay [3], 0.114 µM; in [4], more than 30 µM; in assay [13], 0.043 µM; in [5] it was more than 30 µM.
Regarding `COCCCOc1ccnc(C[S+]([O-])c2nc3ccccc3[nH]2)c1C` (configuration not stated) [RABEPRAZOLE], the AC50 in assay [7] was more than 10 µM; in assay [8], more than 10 µM; in assay [9] it was more than 10 µM; in assay [10], more than 10 µM; in [11] it was 2.2 µM; in assay [15], more than 10 µM. The AC50 is more than 10 µM in assay [12]; more than 10 µM in [16]; 12.8 µM in assay [3]; more than 30 µM in [4]; more than 10 µM in assay [13]; more than 30 µM in assay [5]. For the same molecule, the AC50 in [17] is more than 30 µM; in assay [6], more than 30 µM; in assay [14], more than 10 µM.
As for `O=C(NC(Cc1cc(=O)[nH]c2ccccc12)C(=O)O)c1ccc(Cl)cc1` (configuration not stated) [REBAMIPIDE], the AC50 in [1], in assay [3], in assay [4], in assay [5] and in assay [6] was more than 30 µM throughout.
For the molecule `CCOC(=O)[C@H](CCc1ccccc1)N[C@H]1CS[C@H](c2cccs2)CN(CC(=O)O)C1=O` [TEMOCAPRIL], the AC50 in [1], in assay [3], in assay [4], in assay [5] and in assay [6] was more than 30 µM throughout.
